The assay addresses T1, rh beta tryptase (Homo sapiens, UniProt Q15661).
T1 construct: purchased Promega
Description: tryptase inhibition test (cleavage of N-p-tosyl-Gly-Pro-Lys-para-nitroaniline, p-nitroaniline measured at 405 nm). It is filed as biochemical. Conditions: Tris HCl buffer pH 7.4 with calcium and heparin; substrate 0.6 mM; 5 minutes' pre-incubation, 5 minutes incubation at 37° C. How it is done:
The compounds according to the invention are characterised by their tryptase-inhibiting activity. This ability to inhibit tryptase was investigated using the test described as follows. The measurement is carried out in Tris HCl buffer (100 mM), which additionally contains calcium (5 mM) and heparin ([…]), at pH 7.4. The standard used is rh beta tryptase which may be obtained commercially from Promega, for example. The substrate used is N-p-tosyl-Gly-Pro-Lys-para-nitroaniline in a concentration of 0.6 mM. The substrate is digested with tryptase to form p-nitroaniline which can be measured at 405 nm. Usually, an incubation period of 5 minutes and an incubation temperature of 37° C. are chosen. The enzyme activity used is 0.91 U/ml. The measurements are carried out in an Autoanalyser (Cobas Bio) made by Hofmann LaRoche. The potential inhibitory substances are used in concentrations of 10 μM in the screening, the inhibition of the tryptase being given in percent. The IC50 is determined at over 70% inhibition (concentration at which 50% of the enzyme activity is inhibited). After 5 minutes' pre-incubation of the potential inhibitory substances, the substrate is added to start the reaction, the formation of p-nitroaniline being taken as a measurement of the enzyme activity after 5 minutes, after testing the linearity.

Structures can show the parent of a compound that is named as a salt.

T1 sequence (Q15661 31-275): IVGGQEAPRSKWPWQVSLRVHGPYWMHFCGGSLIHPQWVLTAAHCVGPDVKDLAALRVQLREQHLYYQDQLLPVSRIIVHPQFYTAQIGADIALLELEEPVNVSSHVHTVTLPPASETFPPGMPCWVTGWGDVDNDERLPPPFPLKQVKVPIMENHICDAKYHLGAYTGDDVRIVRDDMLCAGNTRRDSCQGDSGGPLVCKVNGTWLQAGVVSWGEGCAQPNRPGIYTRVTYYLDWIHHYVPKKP

Usually IC50 stands for the point on the concentration scale where inhibition reaches its midpoint. For the compound `COc1ccccc1N1CCN(CC(=O)N(Cc2cccc3ccccc23)c2ccc3c(c2)nc(CCc2ccc(C(=N)N)cc2)n3C)CC1` [Example 58, N-{2-[2-(4-Amidinophenyl)-ethyl]-1-methyl-benzimidazol-5-yl}-N-( - naphthylmethyl)-[2-(1-(2-methoxyphenyl)-piperazin-4-yl)-acetamide]-dihydrochloride], the half-maximal inhibitory concentration (IC50) was determined as 19 nM.
With `CCN(CC)c1ccc(CNCC(=O)N(Cc2cccc3ccccc23)c2ccc3c(c2)nc(CCc2ccc(C(=N)N)cc2)n3C)cc1` [Example 54, N-{2-[2-(4-Amidinophenyl)-ethyl]-1-methyl-benzimidazol-5-yl}-N-( - naphthylmethyl)-[2-(4-diethylaminobenzylamino)-acetamide]-dihydrochloride] the figure was 8.6 nM; with `Cn1c(CCc2ccc(C(=N)N)cc2)nc2cc(N(Cc3cccc4ccccc34)C(=O)CNCc3ccc(C(=N)N)cc3)ccc21` [Example 22, N-{2-[2-(4-Amidinophenyl)-ethyl]-1-methyl-benzimidazol-5-yl}-N-( - naphthylmethyl)-[4-amidinobenzylamino-acetamide]-trihydrochloride], 10 nM; with `Cn1c(CCc2ccc(C(=N)N)cc2)nc2cc(N(Cc3cccc4ccccc34)C(=O)CNCc3ccc(O)cc3)ccc21` [Example 52, N-{2-[2-(4-Amidinophenyl)-ethyl]-1-methyl-benzimidazol-5-yl}-N-( - naphthylmethyl)-[2-(4-hydroxybenzylamino)-acetamide]-dihydrochloride], 12 nM.
Consider `Cn1c(CCc2ccc(C(=N)N)cc2)nc2cc(N(Cc3cccc4ccccc34)C(=O)CCCCCN)ccc21` [Example 31, N-{2-[2-(4-Amidinophenyl)-ethyl]-1-methyl-benzimidazol-5-yl}-N-( - naphthylmethyl)-[6-amino-hexanoic acid amide]-dihydrochloride], for which the IC50 was determined as 30 nM.
As for `CN(C(=O)CCC1CCN(Cc2ccccc2)CC1)c1ccc2c(c1)nc(CCc1ccc(C(=N)N)cc1)n2C` [Example 2, N-{2-[2-(4-Amidinophenyl)-ethyl]-1-methyl-benzimidazol-5-yl}-N-methyl-[3-(N-benzyl-piperid-4-yl)-propionamide]-dihydrochloride], the IC50 was found to be 190 nM.
With `Cn1c(CCc2ccc(C(=N)N)cc2)nc2cc(N(Cc3cccc4ccccc34)C(=O)CNCc3ccccc3N)ccc21` [Example 51, N-{2-[2-(4-Amidinophenyl)-ethyl]-1-methyl-benzimidazol-5-yl}-N-( - naphthylmethyl)-[2-(2-aminobenzylamino)-acetamide]-trihydrochloride], the IC50 stood at 25 nM.
For the compound `Cn1c(CCc2ccc(C(=N)N)cc2)nc2cc(N(Cc3ccccc3)C(=O)CCc3ccc(C(=N)N)cc3)ccc21` [Example 12, N-{2-[2-(4-Amidinophenyl)-ethyl]-1-methyl-benzimidazol-5-yl}-N-benzyl-[3-(4-amidinophenyl)-propionamide]-dihydrochloride], the IC50 turned out to be 30 nM.
As for `Cn1c(CCc2ccc(C(=N)N)cc2)nc2cc(N(Cc3cccc4ccccc34)C(=O)CNCc3ccc(N)cc3)ccc21` [Example 23, N-{2-[2-(4-Amidinophenyl)-ethyl]-1-methyl-benzimidazol-5-yl}-N-( - naphthylmethyl)-[4-aminobenzylamino-acetamide]-trihydrochloride], the IC50 is 7 nM.
`Cn1c(CCc2ccc(C(=N)N)cc2)nc2cc(N(Cc3ccccc3)C(=O)CCC3CCNCC3)ccc21` [Example 7]: the IC50 turned out to be 108 nM.
`Cn1c(CCc2ccc(C(=N)N)cc2)nc2cc(N(Cc3cccc4ccccc34)C(=O)CNCc3ccncc3)ccc21` [Example 48, N-{2-[2-(4-Amidinophenyl)-ethyl]-1-methyl-benzimidazol-5-yl}-N-( - naphthylmethyl)-[2-(pyridin-4-ylmethylamino)-acctamide]-dihydrochloride]: the concentration for half-maximal inhibition (IC50) was found to be 38 nM.
`Cn1c(CCc2ccc(C(=N)N)cc2)nc2cc(N(Cc3ccc4ccccc4c3)C(=O)CCc3ccc(C(=N)N)cc3)ccc21` [Example 11, N-{2-[2-(4-Amidinophenyl)-ethyl]-1-methyl-benzimidazol-5-yl}-N-β-naphthylmethyl-[3-(4-amidinophenyl)-propionamide]-dihydrochloride]: the IC50 stood at 15 nM.
Regarding `Cn1c(CCc2ccc(C(=N)N)cc2)nc2cc(N(Cc3ccncc3)C(=O)CNCc3ccc(N)cc3)ccc21` [Example 74, N-{2-[2-(4-Amidinophenyl)-ethyl]-1-methyl-benzimidazol-5-yl}-N-(-pyridin-4-ylmethyl)-[2-(4-aminobenzylamino)-acetamide]-dihydrochloride], the IC50 worked out at 57.4 nM.
Take `Cn1c(CCc2ccc(C(=N)N)cc2)nc2cc(N(Cc3cccc4ccccc34)C(=O)CN3CCCCC3)ccc21` [Example 81, N-{2-[2-(4-Amidinophenyl)-ethyl]-1-methyl-benzimidazol-5-yl}-N-( - naphthylmethyl)-[2-(piperidin-1-yl)-acetamide]-dihydrochloride]: the IC50 is 63.1 nM.
As to “N-{2-[2-(4-Amidinophenyl)-ethyl]-1- methyl-benzimidazol-5-yl}-N-( - naphthylmethyl)-[2-(1-pyridin-2-yl- piperazin-4-yl)-acetamide]-trihydro- chloride [Example 79]”, the IC50 was 20.1 nM.
On to `Cn1c(CCc2ccc(C(=N)N)cc2)nc2cc(N(Cc3cccc4ccccc34)C(=O)CCCNC(=N)N)ccc21` [Example 30, N-{2-[2-(4-Amidinophenyl)-ethyl]-1-methyl-benzimidazol-5-yl}-N-( - naphthylmethyl)-[4-guanidino-butanoic acid amide]-dihydrochloride], for which the IC50 amounted to 32 nM.
With `Cn1c(CCc2ccc(C(=N)N)cc2)nc2cc(N(Cc3cccc4ccccc34)C(=O)CCc3ccccn3)ccc21` [Example 68, N-{2-[2-(4-Amidinophenyl)-ethyl]-1-methyl-benzimidazol-5-yl}-N-( - naphthylmethyl)-[3-(pyridin-2-yl)-propionamide]-hydrochloride], the IC50 amounted to 38 nM.
On to `Cn1c(CCc2ccc(C(=N)N)cc2)nc2cc(N(Cc3cccc4ccccc34)C(=O)CCCc3ccc([N+](=O)[O-])cc3)ccc21` [Example 42, N-{2-[2-(4-Amidinophenyl)-ethyl]-1-methyl-benzimidazol-5-yl}-N-(α-naphthylmethyl)-[4-(4-nitrophenyl)-butyroamide]-hydrochloride], for which the IC50 worked out at 11 nM.
To `Cn1c(CCc2ccc(C(=N)N)cc2)nc2cc(N(Cc3cccc4ccccc34)C(=O)CNCc3ccccc3)ccc21` [Example 62, N-{2-[2-(4-Amidinophenyl)-ethyl]-1-methyl-benzimidazol-5-yl}-N-( - naphthylmethyl)-[2-(N-benzylamino)-acetamide]-dihydrochloride] belongs 29 nM; to `Cn1c(CCc2ccc(C(=N)N)cc2)nc2cc(N(Cc3cccc4ccccc34)C(=O)CCCc3ccc(N)cc3)ccc21` [Example 47, N-{2-[2-(4-Amidinophenyl)-ethyl]-1-methyl-benzimidazol-5-yl}-N-( - naphthylmethyl)-[4-(4-aminophenyl)-butyroamide]-dihydrochloride], 12 nM.
On to `Cn1c(CCc2ccc(C(=N)N)cc2)nc2cc(N(Cc3cccc4ccccc34)C(=O)Cc3cccc4ccccc34)ccc21` [Example 80, N-{2-[2-(4-Amidinophenyl)-ethyl]-1-methyl-benzimidazol-5-yl}-N-( - naphthylmethyl)-[2-( -naphthyl)-acetamide]-hydrochloride], for which the IC50 turned out to be 30.1 nM.
To `Cn1c(CCc2ccc(C(=N)N)cc2)nc2cc(N(Cc3ccccc3)C(=O)CCCCN)ccc21` [Example 32, N-{2-[2-(4-Amidinophenyl)-ethyl]-1-methyl-benzimidazol-5-yl}-N-benzyl-[5-amino-pentanoic acid amide]-dihydrochloride] belongs 57 nM; to `COc1ccc(CNCC(=O)N(Cc2cccc3ccccc23)c2ccc3c(c2)nc(CCc2ccc(C(=N)N)cc2)n3C)cc1` [Example 43, N-{2-[2-(4-Amidinophenyl)-ethyl]-1-methyl-benzimidazol-5-yl}-N-(- naphthylmethyl)-[2-(4-methoxybenzylamino)-acetamide]-dihydrochloride], 10 nM.
For the compound `CN(C)CCCCC(=O)N(Cc1cccc2ccccc12)c1ccc2c(c1)nc(CCc1ccc(C(=N)N)cc1)n2C` [Example 25, N-{2-[2-(4-Amidinophenyl)-ethyl]-1-methyl-benzimidazol-5-yl}-N-( - naphthylmethyl)-[5-dimethylamino-pentanoic acid amide]-dihydrochloride], the IC50 stood at 33 nM.
To `COc1ccc(CNCC(=O)N(Cc2ccc3ccccc3c2)c2ccc3c(c2)nc(CCc2ccc(C(=N)N)cc2)n3C)cc1` [Example 57, N-{2-[2-(4-Amidinophenyl)-ethyl]-1-methyl-benzimidazol-5-yl}-N-(β-naphthylmethyl)-[4-methoxybenzylamino-acetamide]-dihydrochloride] belongs 26 nM.
To `CCOC(=O)C1CCN(CC(=O)N(Cc2cccc3ccccc23)c2ccc3c(c2)nc(CCc2ccc(C(=N)N)cc2)n3C)CC1` [Example 71, N-{2-[2-(4-Amidinophenyl)-ethyl]-1-methyl-benzimidazol-5-yl}-N-( - naphthylmethyl)-[2-(4-ethylcarboxylate-4-piperidin-1-yl)-acetamide]-dihydrochloride] belongs 15.9 nM.
